SMILES strings stand for the structures. Structures can show the parent of a compound that is named as a salt. Where two headings read alike, the source gives them in different places.

Our source for the EC50 and CC50 values is US9855230B2 (ViiV Healthcare UK (No. 5) Limited, priority 2014, dated 2018).

The test system of data set [1] is recombinant NL4-3 virus (nef section replaced with Renilla luciferase gene) in MT-2 cells. In words: whole plant or invertebrate. It is filed as cell-based, HIV. The note with it: NL43, luciferase activity in MT-2 cells infected 4-5 days with recombinant NL4-3 virus. An excerpt: A recombinant NL4-3 proviral clone, in which a section of the nef gene was replaced with the Renilla luciferase gene, was used to make the reference virus used in these studies.
Supernatent was harvested after 2-3 days and the amount of virus present was titered in MT-2 cells using luciferase enzyme activity as a marker by measuring luciferase enzyme activity. Luciferase was quantitated using the EnduRen Live Cell Substrate from Promega (Madison, Wis.). Antiviral activities of compounds toward the recombinant virus were quantified by measuring luciferase activity in MT-2 cells infected for 4-5 days with the recombinant virus in the presence of serial dilutions of the compound.

Data set [2] in a line: Compound cytotoxicity (CC50), XTT-based colorimetric assay. In kind it is cell-based. The note with it: human; uninfected MT2 cells, day 4, XTT assay. On the procedure: Compound cytotoxicity and the corresponding CC50 values were determined using the same protocol as described in the antiviral assay except that uninfected cells were used. Cytotoxicity was assessed on day 4 in uninfected MT2 cells by using a XTT (2,3-bis[2-Methoxy-4-nitro-5-sulfophenyl]-2H-tetrazolium-5-carboxyanilide inner salt)-based colorimetric assay (Sigma-Aldrich, St Louis, Mo.).
(In general: Tetrazolium dyes change colour on reduction, which living cells bring about.)

In the case of `COc1ccc(-n2ccnc2C(Cc2cc(F)cc(F)c2)NC(=O)NS(=O)(=O)c2ccccc2F)cc1` (racemic) [Example 84, (rac)-N-((2-(3,5-difluorophenyl)-1-(1-(4-methoxyphenyl)-1H-imidazol-2-yl)ethyl)carbamoyl)-2-fluorobenzenesulfonamide], the EC50 in data set [1] (read-out: Activity) was 100 to 1000 nM; in data set [1] (read-out: EC50), 690 nM. In data set [2], the CC50 at 4 day was over 100 µM.
Consider `COc1ccc(-c2c(C(Cc3ccccc3)NC(=O)NS(=O)(=O)c3ccccc3C)nnn2C)cc1` (racemic) [Example 87, (rac)-N-((1-(5-(4-methoxyphenyl)-1-methyl-1H-1,2,3-triazol-4-yl)-2-phenylethyl)carbamoyl)-2-methylbenzenesulfonamide], for which the EC50 was 100 to 1000 nM in data set [1] (read-out: Activity) and 220 nM in data set [1] (read-out: EC50). The CC50 at 4 day in data set [2] was over 100 µM.
For `O=C(NC(Cc1ccccc1)c1ncccc1-c1ccc2ccncc2c1)NS(=O)(=O)c1ccccc1Cl` (stereo in doubt) [Example 108, (S)-2-chloro-N-((1-(3-(isoquinolin-7-yl)pyridin-2-yl)-2-phenylethyl)carbamoyl)benzenesulfonamide, 2 TFA] the same measures were over 1000 nM, 20000 nM and over 100 µM.
In the case of `O=C(NC(Cc1cc(F)cc(F)c1)c1ncccc1Br)NS(=O)(=O)c1ccccc1Cl` (stereo in doubt) [Example 113, (S)-N-((1-(3-bromopyridin-2-yl)-2-(3,5-difluorophenyl)ethyl)carbamoyl)-2-chlorobenzenesulfonamide, TFA], in data set [1] (read-out: Activity), the EC50 was over 1000 nM. For the same compound, the CC50 at 4 day in data set [2] was over 100 µM.
For `COc1ccc(-c2cccnc2C(Cc2cc(F)cc(F)c2)NC(=O)NS(=O)(=O)c2ccccc2Cl)cc1` (stereo in doubt) [Example 114, (S)-2-chloro-N-((2-(3,5-difluorophenyl)-1-(3-(4-methoxyphenyl)pyridin-2-yl)ethyl)carbamoyl)benzenesulfonamide, TFA], the EC50 in data set [1] (read-out: Activity) was over 1000 nM; in data set [1] (read-out: EC50), 34400 nM. Besides, the CC50 at 4 day in data set [2] is over 100 µM.
For the compound `COc1ccc(-n2ccnc2[C@H](Cc2ccccc2)NC(=O)NS(=O)(=O)c2ccccc2C)cc1` [Example 1, (S)-N-((1-(1-(4-methoxyphenyl)-1H-imidazol-2-yl)-2-phenylethyl)carbamoyl)-2-methylbenzene-sulfonamide], the EC50 in data set [1] (read-out: Activity) was under 100 nM. In data set [2], this compound had a CC50 at 4 day of over 100 µM.
In the case of `COC(=O)Nc1ccc(-n2ccnc2[C@H](Cc2ccccc2)NC(=O)NS(=O)(=O)c2ccccc2C)cc1` [Example 2, (S)-methyl (4-(2-(2-phenyl-1-(3-(o-tolylsulfonyl)ureido)ethyl)-1H-imidazol-1-yl)phenyl)carbamate], the EC50 in data set [1] (read-out: Activity) is under 100 nM. The compound further registered a CC50 at 4 day in data set [2] of over 100 µM.
In the case of `COC(=O)Nc1ccc(-n2ccnc2[C@H](Cc2ccccc2)NC(=O)NS(=O)(=O)c2cccc3ccccc23)cc1` [Example 3, (S)-methyl (4-(2-(1-(3-(naphthalen-1-ylsulfonyl)ureido)-2-phenylethyl)-1H-imidazol-1-yl)phenyl)carbamate], the EC50 was 100 to 1000 nM in data set [1] (read-out: Activity) and 100 nM in data set [1] (read-out: EC50). The compound further yielded a CC50 at 4 day in data set [2] of over 100 µM.
As to `Cc1ccccc1S(=O)(=O)NC(=O)N[C@@H](Cc1ccccc1)c1nccn1-c1cccc(-n2cccc2)c1` [Example 4, (S)-N-((1-(1-(3-(1H-pyrrol-1-yl)phenyl)-1H-imidazol-2-yl)-2-phenylethyl)carbamoyl)-2-methyl-benzenesulfonamide], in data set [1] (read-out: Activity), the EC50 was over 1000 nM. This compound also yielded a CC50 at 4 day in data set [2] of over 100 µM.
For `Cc1ccccc1S(=O)(=O)NC(=O)N[C@@H](Cc1ccccc1)c1nccn1-c1ccc(F)cc1` [Example 5, (S)-N-((1-(1-(4-fluorophenyl)-1H-imidazol-2-yl)-2-phenylethyl)carbamoyl)-2-methylbenzenesulfonamide], in that order: 100 to 1000 nM and over 100 µM.
`COc1ccc(-n2ccnc2[C@H](Cc2ccccc2)NC(=O)NS(=O)(=O)c2ccccc2Cl)cc1` [Example 6, (S)-2-chloro-N-((1-(1-(4-methoxyphenyl)-1H-imidazol-2-yl)-2-phenylethyl)carbamoyl)benzenesulfonamide]: the EC50 in data set [1] (read-out: Activity) is under 100 nM; in data set [1] (read-out: EC50) it was 50 nM. Besides, the CC50 at 4 day in data set [2] is over 100 µM.
In the case of `CCOc1ccc(-n2ccnc2[C@H](Cc2ccccc2)NC(=O)NS(=O)(=O)c2ccccc2C)cc1` [Example 7, (S)-N-((1-(1-(4-ethoxyphenyl)-1H-imidazol-2-yl)-2-phenylethyl)carbamoyl)-2-methylbenzenesulfonamide], the EC50 in data set [1] (read-out: Activity) was under 100 nM. The CC50 at 4 day in data set [2] was over 100 µM.
Consider `COc1ccc(-n2ccnc2[C@H](Cc2ccccc2)NC(=O)NS(=O)(=O)c2ccccc2C)c(C)c1` [Example 8, (S)-N-((1-(1-(4-methoxy-2-methylphenyl)-1H-imidazol-2-yl)-2-phenylethyl)carbamoyl)-2-methylbenzenesulfonamide], for which the EC50 in data set [1] (read-out: Activity) lay in the range of 100 to 1000 nM. Further, the CC50 at 4 day in data set [2] is over 100 µM.
With `COc1cccc(-n2ccnc2[C@H](Cc2ccccc2)NC(=O)NS(=O)(=O)c2ccccc2C)c1` [Example 9, (S)-N-((1-(1-(3-methoxyphenyl)-1H-imidazol-2-yl)-2-phenylethyl)carbamoyl)-2-methylbenzenesulfonamide], the values for the EC50 in data set [1] (read-out: Activity) and in data set [1] (read-out: EC50) were under 100 nM and 50 nM, respectively. The CC50 at 4 day in data set [2] is over 100 µM.
With `COc1ccc(-n2ccnc2[C@H](Cc2ccccc2)NC(=O)NS(=O)(=O)c2ccccc2C)cc1OC` [Example 10, (S)-N-((1-(1-(3,4-dimethoxyphenyl)-1H-imidazol-2-yl)-2-phenylethyl)carbamoyl)-2-methylbenzenesulfonamide], the EC50 in data set [1] (read-out: Activity) was under 100 nM. The same compound showed a CC50 at 4 day in data set [2] of over 100 µM.
On to `Cc1ccccc1S(=O)(=O)NC(=O)N[C@@H](Cc1ccccc1)c1nccn1-c1ccc(OC(F)(F)F)cc1` [Example 11, (S)-2-methyl-N-((2-phenyl-1-(1-(4-(trifluoromethoxy)phenyl)-1H-imidazol-2-yl)ethyl)carbamoyl)benzenesulfonamide], for which the EC50 in data set [1] (read-out: Activity) was under 100 nM. It took 59 µM to reach half-maximal cytotoxicity in data set [2] (CC50 at 4 day).
`Cc1ccccc1S(=O)(=O)NC(=O)N[C@@H](Cc1ccccc1)c1nccn1-c1cccc(Cl)c1` [Example 12, (S)-N-((1-(1-(3-chlorophenyl)-1H-imidazol-2-yl)-2-phenylethyl)carbamoyl)-2-methylbenzenesulfonamide]: the EC50 in data set [1] (read-out: Activity) was under 100 nM; in data set [1] (read-out: EC50), 50 nM. Further, the CC50 at 4 day in data set [2] was over 100 µM.
With `Cc1ccc(-n2ccnc2[C@H](Cc2ccccc2)NC(=O)NS(=O)(=O)c2ccccc2C)cc1` [Example 13, (S)-2-methyl-N-((2-phenyl-1-(1-(p-tolyl)-1H-imidazol-2-yl)ethyl)carbamoyl)benzenesulfonamide], the EC50 in data set [1] (read-out: Activity) is under 100 nM. Moreover, the CC50 at 4 day in data set [2] is over 100 µM.
For `Cc1ccccc1S(=O)(=O)NC(=O)N[C@@H](Cc1ccccc1)c1nccn1-c1ccc(Cl)cc1` [Example 14, (S)-N-((1-(1-(4-chlorophenyl)-1H-imidazol-2-yl)-2-phenylethyl)carbamoyl)-2-methylbenzenesulfonamide] the same measures were 100 to 1000 nM and over 100 µM.
As to `Cc1ccccc1S(=O)(=O)NC(=O)N[C@@H](Cc1ccccc1)c1nccn1-c1ccc(Br)cc1` [Example 15, (S)-N-((1-(1-(4-bromophenyl)-1H-imidazol-2-yl)-2-phenylethyl)carbamoyl)-2-methylbenzenesulfonamide], the EC50 in data set [1] (read-out: Activity) is 100 to 1000 nM; in data set [1] (read-out: EC50), 190 nM. This compound also came in with a CC50 at 4 day in data set [2] of over 100 µM.
As for `COc1ccccc1-n1ccnc1[C@H](Cc1ccccc1)NC(=O)NS(=O)(=O)c1ccccc1C` [Example 16, (S)-N-((1-(1-(2-methoxyphenyl)-1H-imidazol-2-yl)-2-phenylethyl)carbamoyl)-2-methylbenzenesulfonamide], the EC50 in data set [1] (read-out: Activity) is over 1000 nM. For the same compound, the CC50 at 4 day in data set [2] was over 100 µM.
For the compound `C=CCOc1cccc(-n2ccnc2[C@H](Cc2ccccc2)NC(=O)NS(=O)(=O)c2ccccc2C)c1` [Example 17, (S)-N-((1-(1-(3-(allyloxy)phenyl)-1H-imidazol-2-yl)-2-phenylethyl)carbamoyl)-2-methylbenzenesulfonamide], the EC50 in data set [1] (read-out: Activity) was 100 to 1000 nM. Besides, the CC50 at 4 day in data set [2] was over 33 µM.
Regarding `Cc1ccccc1S(=O)(=O)NC(=O)N[C@@H](Cc1ccccc1)c1nccn1-c1ccc2c(c1)CCO2` [Example 18, (S)-N-((1-(1-(2,3-dihydrobenzofuran-5-yl)-1H-imidazol-2-yl)-2-phenylethyl)carbamoyl)-2-methylbenzenesulfonamide], the EC50 in data set [1] (read-out: Activity) is under 100 nM; in data set [1] (read-out: EC50) it was 10 nM. The compound further came in with a CC50 at 4 day in data set [2] of over 100 µM.
As for `Cc1ccccc1S(=O)(=O)NC(=O)N[C@@H](Cc1ccccc1)c1nccn1-c1cccc(OC(F)(F)F)c1` [Example 19, (S)-2-methyl-N-((2-phenyl-1-(1-(3-(trifluoromethoxy)phenyl)-1H-imidazol-2-yl)ethyl)carbamoyl)benzenesulfonamide], the EC50 in data set [1] (read-out: Activity) was in the range of 100 to 1000 nM. In addition, the CC50 at 4 day in data set [2] was over 33 µM.
With `Cc1ccccc1S(=O)(=O)NC(=O)N[C@@H](Cc1ccccc1)c1nccn1-c1cccc(Br)c1` [Example 20, (S)-N-((1-(1-(3-bromophenyl)-1H-imidazol-2-yl)-2-phenylethyl)carbamoyl)-2-methylbenzenesulfonamide], the EC50 in data set [1] (read-out: Activity) was under 100 nM. The compound also gave a CC50 at 4 day in data set [2] of over 33 µM.

The CC50 is the concentration that lowers cell viability or growth by half. A higher CC50 goes with better tolerance by the cells.
